According to patent publication US8188135B2, “Compounds as cannabinoid receptor ligands” (priority 2008, dated 2012):
pEC50, pKi: −log10 of the molar value. Where two headings read alike, the source gives them in different places.

Key:
[1] = biological target: T1, human CB2 receptors (Homo sapiens, UniProt P34972); assay: human CB2 radioligand binding assay ([3H]CP 55,940 competition); details: HEK293 membranes, 0.5 nM [3H]CP 55,940; for Ki: human CB2 (Ki, nM)
T1 construct: expressed in transfected cells; host or cells: HEK293
T1 sequence (P34972 whole entry): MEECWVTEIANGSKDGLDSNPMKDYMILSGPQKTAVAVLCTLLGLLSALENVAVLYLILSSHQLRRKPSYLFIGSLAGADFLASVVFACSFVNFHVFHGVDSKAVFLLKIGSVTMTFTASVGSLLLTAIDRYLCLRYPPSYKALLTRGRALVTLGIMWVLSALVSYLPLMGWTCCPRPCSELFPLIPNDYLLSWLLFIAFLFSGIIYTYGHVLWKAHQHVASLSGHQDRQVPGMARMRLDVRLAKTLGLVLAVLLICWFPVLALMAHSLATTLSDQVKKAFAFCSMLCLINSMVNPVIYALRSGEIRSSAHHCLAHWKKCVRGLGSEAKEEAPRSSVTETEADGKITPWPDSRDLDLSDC
How it was run: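 Displacement of 0.5 nM [3H]CP 55,940 over 0.01 nM-10 μM test compound, measured on human CB2 membranes from stably transfected HEK293 cells. Incubation 90 min at 30 °C in Tris/EDTA/MgCl2/BSA, pH 7.4, then filter-bound radioactivity counted; 10 μM unlabeled CP 55,940 defined nonspecific binding.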

[2] = biological target: T2, rat CB2 (Rattus norvegicus, UniProt Q9QZN9); assay: rat CB2 cyclase functional assay (HitHunter cAMP); format: cell-based; set-up: expressed in transfected cells; host or cells: HEK; details: HEK cells, forskolin 18 μM; for EC50: rat CB2 cyclase (EC50, nM); for pEC50: read-out: rat CB2 cyclase (EC50)
T2 sequence (Q9QZN9 1-360): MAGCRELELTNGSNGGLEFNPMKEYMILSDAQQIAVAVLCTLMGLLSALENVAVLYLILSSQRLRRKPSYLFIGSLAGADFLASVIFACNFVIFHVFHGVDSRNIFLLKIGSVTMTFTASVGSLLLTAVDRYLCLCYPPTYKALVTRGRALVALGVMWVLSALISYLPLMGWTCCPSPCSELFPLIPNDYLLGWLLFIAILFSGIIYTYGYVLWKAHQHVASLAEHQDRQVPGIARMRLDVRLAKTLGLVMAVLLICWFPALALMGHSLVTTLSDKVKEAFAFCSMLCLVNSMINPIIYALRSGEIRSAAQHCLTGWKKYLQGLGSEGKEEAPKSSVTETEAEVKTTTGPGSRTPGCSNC
Experimental: (§1) The cyclase functional assays were performed using the HitHunter™ cAMP assay kit from DiscoveRx (Fremont, Calif.) according to vendor's protocol. Briefly, HEK cells expressing CB2 or CB1 receptors (rat or human) were detached using cell dissociation buffer (Invitrogen, Carlsbad, Calif.), dispersed and placed in suspension at 10,000 cells per well in 96 well plates prior to the assay. Cell suspensions were incubated at 37° C. for 20 min with variable concentrations of test ligands and or 10 μM CP 55,940-positive control in the presence of a fixed concentration of forskolin (18 μM for rat CB2 and 37 μM for rat CB1) in Dulbescco's phosphate-buffered saline (Invitrogen, Carlsbad, Calif.) supplemented with bovine serum albumin (0.01% final concentration). The reactions were terminated by the addition of lysis buffer and the luminescence was detected following the procedure according to the manufacturer's instructions. EC50 values were calculated using sigmoidal dose-response curve fitting from Prism (GraphPad).

[3] = biological target: T2, rat CB2; assay: rat CB2 radioligand binding assay ([3H]CP 55,940 competition); set-up: expressed in transfected cells; host or cells: HEK293; details: HEK293 membranes, 0.5 nM [3H]CP 55,940; for Ki: rat CB2 (Ki, nM)
How it was run: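 Competition binding against 0.5 nM [3H]CP 55,940 (pH 7.4 buffer with 0.5 mg/mL BSA, 30 °C, 45 min), with displacers spanning 0.01 nM–10 μM at five concentrations. Receptor source: stably transfected HEK293 membranes, 20 μg/well. Nonspecific binding defined by 10 μM unlabeled CP 55,940; readout by filtration and counting.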

[4] = biological target: T3, Rat CB1 (Rattus norvegicus, UniProt P20272); assay: rat CB1 cyclase functional assay (HitHunter cAMP); format: cell-based; details: HEK cells, forskolin 37 μM; for EC50: Rat CB1 cyclase (EC50, nM); for pEC50: read-out: Rat CB1 cyclase (EC50)
T3 construct: expressed in transfected cells; host or cells: HEK
T3 sequence (P20272 whole entry): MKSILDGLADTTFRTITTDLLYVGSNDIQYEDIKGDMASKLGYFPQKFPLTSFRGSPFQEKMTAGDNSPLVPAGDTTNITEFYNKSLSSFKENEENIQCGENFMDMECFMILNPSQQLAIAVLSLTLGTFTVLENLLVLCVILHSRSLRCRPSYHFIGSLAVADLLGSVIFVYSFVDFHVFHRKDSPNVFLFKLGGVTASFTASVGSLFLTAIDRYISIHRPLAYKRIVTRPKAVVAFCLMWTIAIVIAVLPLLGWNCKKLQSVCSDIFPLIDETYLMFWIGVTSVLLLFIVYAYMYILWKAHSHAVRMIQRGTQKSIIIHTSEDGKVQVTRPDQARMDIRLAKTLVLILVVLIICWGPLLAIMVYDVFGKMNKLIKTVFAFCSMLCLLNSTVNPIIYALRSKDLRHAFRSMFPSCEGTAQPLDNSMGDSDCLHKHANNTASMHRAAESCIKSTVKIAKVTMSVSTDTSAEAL
Experimental: as §1

| SMILES | Ki [1] | EC50 [2] | Ki [3] | EC50 [4] | pKi ([1]; read-out: human CB2 (Ki)) | pEC50 [2] | pKi ([3]; read-out: rat CB2 (Ki)) | pEC50 [4] |
| --- | --- | --- | --- | --- | --- | --- | --- | --- |
| Cn1c(C(C)(C)C)c/c(=N\C(=O)c2cc(C(F)(F)F)ccc2OC[C@H]2COC(C)(C)O2)n1C[C@H]1CCCO1 [Example 18, N-{(3E)-5-tert-butyl-1-methyl-2-[(2R)-tetrahydrofuran-2-ylmethyl]-1,2-dihydro-3H-pyrazol-3-ylidene}-2-{[(4S)-2,2-dimethyl-1,3-dioxolan-4-yl]methoxy}-5-(trifluoromethyl)benzamide] | 37 nM | 1.8 nM | 22 nM | > 27000 nM |  |  |  |  |
| Cn1c(C(C)(C)C)c/c(=N\C(=O)c2cc(C(F)(F)F)ccc2NC[C@@H]2CCCO2)n1C[C@H]1CCCO1 [Example 21, N-{(3E)-5-tert-butyl-1-methyl-2-[(2R)-tetrahydrofuran-2-ylmethyl]-1,2-dihydro-3H-pyrazol-3-ylidene}-2-{[(2S)-tetrahydrofuran-2-ylmethyl]amino}-5-(trifluoromethyl)benzamide] | 0.9 nM | 0.19 nM | 0.6 nM | 901 nM |  |  |  |  |
| Cn1c(C(C)(C)C)c/c(=N\C(=O)c2cc(C(F)(F)F)ccc2NC[C@H]2CCCO2)n1C[C@H]1CCCO1 [Example 23, N-{(3E)-5-tert-butyl-1-methyl-2-[(2R)-tetrahydrofuran-2-ylmethyl]-1,2-dihydro-3H-pyrazol-3-ylidene}-2-{[(2R)-tetrahydrofuran-2-ylmethyl]amino}-5-(trifluoromethyl)benzamide] | 4.7 nM | 0.37 nM | 2.8 nM | 3420 nM |  |  |  |  |
| Cn1c(C(C)(C)C)c/c(=N\C(=O)c2cc(C(F)(F)F)ccc2OC[C@H]2OCC[C@H]2F)n1C[C@H]1CCCO1 [Example 24] | 16 nM | 0.28 nM | 20 nM | 9200 nM |  |  |  |  |
| Cn1c(C(C)(C)C)c/c(=N\C(=O)c2cc(C(F)(F)F)ccc2OC[C@@H]2C=CCO2)n1C[C@H]1CCCO1 [Example 25, N-{(3E)-5-tert-1-methyl-2-[(2R)-tetrahydrofuran-2-ylmethyl]-1,2-dihydro-3H-pyrazol-3-ylidene}-2-[(2S)-2,5-dihydrofuran-2-ylmethoxy]-5-(trifluoromethyl)benzamide] |  |  |  |  | 7.51 | 9.52 | 7.70 | 6.27 |
| Cn1c(C(C)(C)C)c/c(=N\C(=O)c2cc(C(F)(F)F)ccc2OC[C@@H]2CCCO2)n1CC1CC1 [Example 27, N-[(3E)-5-tert-butyl-2-(cyclopropylmethyl)-1-methyl-1,2-dihydro-3H-pyrazol-3-ylidene]-2-[(2S)-tetrahydrofuran-2-ylmethoxy]-5-(trifluoromethyl)benzamide] | 23 nM | 0.2 nM | 9.4 nM | 3370 nM |  |  |  |  |
| Cn1c(C(C)(C)C)c/c(=N\C(=O)c2cc(C(F)(F)F)cc(Cl)c2OC[C@@H]2CCCO2)n1C[C@H]1CCCO1 [Example 28, N-{(3E)-5-tert-butyl-1-methyl-2-[(2R)-tetrahydrofuran-2-ylmethyl]-1,2-dihydro-3H-pyrazol-3-ylidene}-3-chloro-2-[(2S)-tetrahydrofuran-2-ylmethoxy]-5-(trifluoromethyl)benzamide] | 44 nM | 0.91 nM | 15 nM | 8090 nM |  |  |  |  |
| CCCCn1nc(C(C)(C)C)s/c1=N\C(=O)c1cc(C(F)(F)F)ccc1OC[C@@H]1CCCN1C [Example 29, N-[(2Z)-3-butyl-5-tert-butyl-1,3,4-thiadiazol-2(3H)-ylidene]-2-{[(2S)-1-methylpyrrolidin-2-yl]methoxy}-5-(trifluoromethyl)benzamide] | 14 nM | 3.7 nM | 11 nM | 1680 nM |  |  |  |  |
| Cn1c(C(C)(C)C)c/c(=N\C(=O)c2cc(C(F)(F)F)ccc2OC[C@@H]2CCCO2)n1Cc1ccc(F)cc1 [Example 30, N-[(3E)-5-tert-butyl-2-(4-fluorobenzyl)-1-methyl-1,2-dihydro-3H-pyrazol-3-ylidene]-2-[(2S)-tetrahydrofuran-2-ylmethoxy]-5-(trifluoromethyl)benzamide] | 28 nM | 2.5 nM | 23 nM | > 27000 nM |  |  |  |  |
| CN1CCC[C@H]1COc1ccc(C(F)(F)F)cc1C(=O)/N=c1\oc(C(C)(C)C)cn1C[C@H]1CCCO1 [Example 32, N-[(2Z)-5-tert-butyl-3-[(2R)-tetrahydrofuran-2-ylmethyl]-1,3-oxazol-2(3H)-ylidene]-2-{[(2S)-1-methylpyrrolidin-2-yl]methoxy}-5-(trifluoromethyl)benzamide] | 88 nM | 0.6 nM | 75 nM | 3870 nM |  |  |  |  |
| CN1CCC[C@H]1COc1ccc(C(F)(F)F)cc1C(=O)/N=C1\SC(C)(C)CN1C[C@H]1CCCO1 [Example 33, N-{(2Z)-5,5-dimethyl-3-[(2R)-tetrahydrofuran-2-ylmethyl]-1,3-thiazolidin-2-ylidene}-2-{[(2S)-1-methylpyrrolidin-2-yl]methoxy}-5-(trifluoromethyl)benzamide] | 23 nM | 0.09 nM | 20 nM | 5380 nM |  |  |  |  |
| CN1CCC[C@H]1COc1ccc(C(F)(F)F)cc1C(=O)/N=c1\cc(C(C)(C)C)on1C[C@H]1CCCO1 [Example 39, N-[(3E)-5-tert-butyl-2-[(2R)-tetrahydrofuran-2-ylmethyl]isoxazol-3(2H)-ylidene]-2-{[(2S)-1-methylpyrrolidin-2-yl]methoxy}-5-(trifluoromethyl)benzamide] | 62 nM | 0.63 nM | 46 nM | 2620 nM |  |  |  |  |
| Cn1c(C(C)(C)C)c/c(=N\C(=O)c2cc(C(F)(F)F)ccc2OCc2cnccn2)n1C[C@H]1CCCO1 [Example 40, N-{(3E)-5-tert-butyl-1-methyl-2-[(2R)-tetrahydrofuran-2-ylmethyl]-1,2-dihydro-3H-pyrazol-3-ylidene}-2-(pyrazin-2-ylmethoxy)-5-(trifluoromethyl)benzamide] | 126 nM | 3.3 nM | 73 nM | > 27000 nM |  |  |  |  |
| Cn1c(C(C)(C)C)c/c(=N\C(=O)c2cc(C(F)(F)F)ccc2OCCNC(=O)OC(C)(C)C)n1C[C@H]1CCCO1 [Example 41, tert-butyl 2-[2-[({(3E)-5-tert-butyl-1-methyl-2-[(2R)-tetrahydrofuran-2-ylmethyl]-1,2-dihydro-3H-pyrazol-3-ylidene}amino)carbonyl]-4-(trifluoromethyl)phenoxy]ethylcarbamate] | 96 nM |  | 21 nM |  |  | 6.00 |  | < 4.57 |
| Cn1c(C(C)(C)C)c/c(=N\C(=O)c2cc(C(F)(F)F)ccc2OCC(O)CO)n1C[C@H]1CCCO1 (some centres unmarked) [Example 42] | 20 nM | 0.34 nM | 11 nM | 6100 nM |  |  |  |  |
| Cn1c(C(C)(C)C)c/c(=N\C(=O)c2cc(C(F)(F)F)ccc2OCc2cccnc2)n1C[C@H]1CCCO1 [Example 43, N-{(3E)-5-tert-butyl-1-methyl-2-[(2R)-tetrahydrofuran-2-ylmethyl]-1,2-dihydro-3H-pyrazol-3-ylidene}-2-(pyridin-3-ylmethoxy)-5-(trifluoromethyl)benzamide] | 220 nM | 2.4 nM | 56 nM | > 27000 nM |  |  |  |  |
| Cn1c(C(C)(C)C)c/c(=N\C(=O)c2cc(C(F)(F)F)ccc2OCCNS(C)(=O)=O)n1C[C@H]1CCCO1 [Example 45, N-{(3E)-5-tert-butyl-1-methyl-2-[(2R)-tetrahydrofuran-2-ylmethyl]-1,2-dihydro-3H-pyrazol-3-ylidene}-2-{2-[(methylsulfonyl)amino]ethoxy}-5-(trifluoromethyl)benzamide] | 19 nM | 0.47 nM | 7.8 nM | 4940 nM |  |  |  |  |
